Source: patent US11371994B2, “Phosphorylated Akt-specific capture agents, compositions, and methods of using and making” (California Institute of Technology, priority 2013, dated 2022)
Where “and” joins values, the source holds several entries; their conditions need not be identical. Equal entries are not always repeated. Entries after “also recorded” stand apart in the source; their conditions may differ.

Columns and labels:
[1] = system: Akt; settings: cited from earlier work
[2] = target: T1, Akt (Homo sapiens, UniProt P31751); assay: OVCAR3 lysate pull-down (immunoprecipitation) assay; format: binding; settings: eluents stained with pan-Akt antibody
T1 construct: endogenous in cells; host or cells: OVCAR3
Protocol: OVCAR3 cells (ATCC) were grown in RPMI-1640 media containing 20% fetal bovine serum. Passage three cells were grown to ˜80% confluence. Cells were lysed with lysis buffer (10 mM Tris-Cl (pH=7.5), 100 mM NaCl, 1% (v/v) Triton X-100, 0.1% SDS (w/v), 0.5% deoxycholate, 1 mM DTT, 1 mM EDTA, 1× PhosStop phosphatase inhibitors (Roche), 1× Complete protease inhibitors (Roche)) and the amount of protein measured using BCA Protein Assay Kit (Pierce Biotechnologies, Inc). Streptavidin-agarose resin solution (EMD) was swelled in TBST (25 mM tris chloride, pH=7.5, 150 mM NaCl, 0.05% Tween-20). Each of the biotinylated ligands was immobilized on the Streptavidin-agarose resin by adding 7.2 μL of 1 mM ligand stock (DMSO) to 10 μL of the swelled streptavidin-agarose resin. For the blank control, the resin was treated with 7.2 μL of 1 mM biotinylated acyl glycine. […] After shaking overnight at 4° C., 50 μM D-biotin was added to the resin to block any remaining sites. The resin was washed with TBST five times, for fifteen minutes each. The resin was then swelled in binding buffer for two hours. To each of the immobilized ligands, 200 μL OVCAR3 cell lysate (1.9 mg/ml) was added. The tubes were shaken at 4° C. for 18 hours. The beads were extensively washed, three times for fifteen minutes in binding buffer, three times (fifteen minutes) in TBST, and three times (fifteen minutes) in TBS to remove unbound proteins. The resin bound proteins were eluted by adding 40 μL of 2×SDS-PAGE sample loading buffer (BioRad) and heating at 95° C. for five minutes. A 1:10 diluted sample of lysate in sample loading buffer was prepared by mixing 1 μL of the sample with 9 μL sample loading buffer and denaturing the sample by heating at 95° C. for five minutes. 10 μL of each sample was loaded on a 12% SDS-PAGE gels (BioRad) and run for 80 minutes at 110 volts. Three identical gels were loaded and run at the same time. One gel was used for Coomassie staining with Coomassie Fluor Orange Protein Gel Stain (Molecular Probes) following the manufacturer's protocol. The two other gels were transferred to nitrocellulose membranes by the semidry transfer method, blocked for two hours at 4° C. with 5% non-fat milk, and treated overnight at 4° C. with a 1:1000 dilution of pan-Akt rabbit monoclonal antibody (Cell Signaling Technology) and a 1:1000 dilution of pS473 Akt rabbit monoclonal antibody (Cell Signaling Technology), respectively, in 0.5% non-fat milk. The membranes were washed and treated for an hour with a 1:10,000 dilution of monoclonal mouse anti-rabbit-HRP secondary antibody (Cell Signaling Technology) in 0.5% milk. After five washes of five minutes each with TBST and one wash of five minutes with TBS, the blots were developed with West Dura ECL substrate (Thermo Scientific) and imaged on film.

[3] = target: T2, target peptide epitope (Akt2 450-481, pS474) (Homo sapiens, UniProt P31751); assay: ELISA of C terminal triligand candidates binding to the target peptide epitope; settings: listed as C-t1
T2 construct: made in house; host or cells: chemical solid-phase peptide synthesis (Rink Amide MBHA resin)
T2 sequence (P31751 450-481 limits assumed): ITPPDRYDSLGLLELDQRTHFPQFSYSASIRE
Protocol: Selection of the final C terminal triligand C-tL: Four triligand candidates were synthesized with (L-Az4)-hdGGf (SEQ ID NO:25) […], (L-Az4)-hdGsf (SEQ ID NO:74) (C-t2), (L-Az4)-hdGww (SEQ ID NO:67) (C-t3), (L-Az4)-hdGkf (SEQ ID NO:77) (C-t4) as the 3° peptide arm. Binding of the candidates to the target peptide epitope was determined in an ELISA assay (FIG. 20C) and the ligand C-t1 emerged as the best binder. C-t1 was chosen as the C terminal triligand C-tL.
(§1) 1.25 μM biotinylated ligand was prepared by diluting the 1 mM stock in binding buffer (25 mM tris chloride, pH=7.4, 150 mM NaCl, 0.1% BSA, 0.05% Tween 20). The prepared ligand solution or 0.125% DMSO in buffer (buffer control) was immobilized on a High Capacity Streptavidin 96 well plate (Thermo Scientific). After washing away the excess ligand, the plate was blocked overnight with 1% BSA/25 mM tris chloride, pH=7.4/150 mM NaCl, 0.05% Tween 20. 2.5 μM solutions of the His6 (SEQ ID NO:28) tagged target phosphopeptide epitope Akt2 amino acids 450-481, His6 (SEQ ID NO:28) tagged Akt1 amino acids 449-480, His6 (SEQ ID NO:28) tagged Akt3 amino acids 448-479 were added to each of the wells. […] The A450 measured on a 96-well plate reader. The Net A450 was obtained by subtracting the absorbance value for the blank control (no immobilized ligand) from each of the triplicate values obtained for the ligand-epitope interaction. […]

[4] = target: T3, Akt2 epitope (450-481) (Homo sapiens, UniProt P31751); assay: Epitope selectivity ELISA with His6 tagged C-terminal 32-mer fragments; format: binding; settings: peptide fragments; set also full protein level
T3 construct: made in house; host or cells: chemical solid-phase peptide synthesis (Rink Amide MBHA resin)
T3 sequence (P31751 450-481 limits assumed): T2 sequence (P31751 450-481 limits assumed)
Protocol: as §1, with “wells. Following three washes with the binding buffer, the plate was treated for an hour with a 1:1000 dilution of anti His6 (SEQ ID NO:28) mouse monoclonal antibody. A 1:10,000 dilution of goat anti mouse antibody-Horse Radish Peroxide conjugate in binding buffer was added to the wells. The plates were washed four times, five minutes each, with 0.05% Tween 20/TBS (25 mM tris chloride, pH=7.5, 150 mM NaCl) and once with TBS (25 mM tris chloride, pH=7.5, 150 mM NaCl).” for “wells.”

[5] = target: T4, Akt2 (Homo sapiens, UniProt P31751); assay: Single component ELISA, PCC agent as capture or detection agent (relative affinity); format: binding; parameters: purchased Abcam; settings: read-out: EC50 from single component ELISA
Description: FIG. 23: A. ELISA assays in which the PCC Agents are utilized as either as surface-localized capture agents (for N-tL, C-tL) or as the detection agent (for mono-L, bi-L). Such assays provide relative affinity measurements, which are given as EC50 values in the key. […] C. C-tL distinguishes the full length Akt2 from isoform proteins Akt1 and Akt3. D. The 32 amino acid long C terminal fragment from Akt2, Akt1 and Akt3. The hydrophobic motif is highlighted in blue. pS refers to phospho-serine. […] F. Selectivity assays: Biotinylated ligands or biotinylated pS473 antibody is immobilized on streptavidin-agarose and treated with OVCAR3 cell lysate. The eluents are stained with a pan-Akt antibody or pS473 Akt antibody.
1.25 μM biotinylated ligand was prepared by diluting the 1 mM stock in binding buffer (25 mM tris chloride, pH=7.4, 150 mM NaCl, 0.1% BSA, 0.05% Tween 20). The prepared ligand solution or 0.125% DMSO in buffer (buffer control) was immobilized on a High Capacity Streptavidin 96 well plate (Thermo Scientific). After washing away the excess ligand, the plate was blocked overnight with 1% BSA/25 mM tris chloride, pH=7.4/150 mM NaCl, 0.05% Tween 20. 2.5 μM solutions of the His6 (SEQ ID NO:28) tagged target phosphopeptide epitope Akt2 amino acids 450-481, His6 (SEQ ID NO:28) tagged Akt1 amino acids 449-480, His6 (SEQ ID NO:28) tagged Akt3 amino acids 448-479 were added to each of the wells. Following three washes with the binding buffer, the plate was treated for an hour with a 1:1000 dilution of anti His6 (SEQ ID NO:28) mouse monoclonal antibody. A 1:10,000 dilution of goat anti mouse antibody-Horse Radish Peroxide conjugate in binding buffer was added to the wells. The plates were washed four times, five minutes each, with 0.05% Tween 20/TBS (25 mM tris chloride, pH=7.5, 150 mM NaCl) and once with TBS (25 mM tris chloride, pH=7.5, 150 mM NaCl). Color was developed by adding TMB substrate (KPL) to each well. The reaction was quenched with 0.5 M H2SO4. The A450 measured on a 96-well plate reader. The Net A450 was obtained by subtracting the absorbance value for the blank control (no immobilized ligand) from each of the triplicate values obtained for the ligand-epitope interaction. The selectivity assay with full length His6 (SEQ ID NO:28) tagged Akt1, Akt2 and Akt3 was performed following the same protocol, using 25 nM protein instead of 2.5 μM His6 tagged peptide epitope.

[6] = target: T4, Akt2; assay: Non-radioactive kinase assay, phosphorylation of GSK-3α/β fusion protein; format: biochemical; parameters: purchased Abcam
Protocol: The non-radioactive kinase assay kit for Akt2 was purchased from Cell Signaling. Ligand solutions were made in DMSO. Kinase reactions were set up in 1× kinase buffer (25 mM trisHCl (pH 7.5), 10 mM MgCl2, 0.01% Triton-X, 1× Complete protease inhibitor (Roche), 1× Phosstop phosphatase inhibitor (Roche)), each 25 μL reaction mixture containing 400 ng Akt2, 400 ng GST-GSK-3α/β fusion protein, […] and 0.5 μL of peptide solutions in DMSO or DMSO only. Reactions were allowed to proceed for 30 minutes at 30° C. A reaction mixture was also prepared using a 1:2.5 dilution of anti pS473 antibody (Cell Signaling) in the kinase buffer instead of the peptide ligand or DMSO. The reactions were quenched by adding 12.5 μL of 2×SDS sample loading buffer and heating at 95° C. for five minutes. 10 μL from each sample was loaded on an any kD SDS gel (BioRad) and run for an hour at 110 volts. Following semidry transfer of the gel to a nitrocellulose membrane, the membrane was blocked in 5% nonfat milk/TBST for an hour at 4° C., and treated overnight at 4° C. with a 1:200 dilution of Phospho GSK-3α/β Ser (21/9) rabbit antibody (Cell Signaling) in 0.5% milk/TBST. Following washes, the membrane was treated with a 1:2000 dilution of mouse anti-rabbit-HRP antibody for an hour at 4° C. After four five minute washes with TBST, and one five minute wash with TBS, the membrane was treated with West Dura ECL substrate (Thermo Scientific) and imaged on film.

T4 sequence (P31751 whole entry, the tested form may be a part, canonical isoform): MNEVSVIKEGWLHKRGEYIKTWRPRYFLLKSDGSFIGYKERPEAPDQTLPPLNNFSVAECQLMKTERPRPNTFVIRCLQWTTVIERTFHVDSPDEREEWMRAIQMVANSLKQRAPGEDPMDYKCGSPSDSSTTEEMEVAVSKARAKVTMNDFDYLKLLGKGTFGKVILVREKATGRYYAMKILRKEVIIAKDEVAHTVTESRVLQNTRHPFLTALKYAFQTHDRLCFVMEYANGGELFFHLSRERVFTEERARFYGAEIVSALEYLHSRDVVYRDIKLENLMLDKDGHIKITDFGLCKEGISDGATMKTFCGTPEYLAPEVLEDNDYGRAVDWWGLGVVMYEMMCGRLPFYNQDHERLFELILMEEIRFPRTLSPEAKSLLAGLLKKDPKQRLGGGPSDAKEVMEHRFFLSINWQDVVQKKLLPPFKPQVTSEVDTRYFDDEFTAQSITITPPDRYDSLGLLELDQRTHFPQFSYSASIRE
T1 sequence (P31751 whole entry): as the sequence (P31751 whole entry, the tested form may be a part, canonical isoform) above

Structure (SMILES)	effect on Akt phosphorylation [1]	immunoprecipitation of Akt from OVCAR3 cell lysate [2]	binding to the target peptide epitope [3]	selectivity for the Akt2 epitope compared to corresponding regions in Akt1 and Akt3 [4]	EC50 [5] [µM]	EC50 ([6]; densitometry of pGSK3α/β western blot, normalized to DMSO control, read-out: EC50 of inhibition of Akt2 kinase activity)	influence on Akt2 kinase activity (p-GSK-3α/β level) ([6]; relative to DMSO control)
Cc1n[nH]c2ccc(-c3cncc(OC[C@@H](N)Cc4c[nH]c5ccccc45)c3)cc12 [A-443654]	paradoxical hyper-phosphorylation of Akt at both Thr308 and Ser473	–	–	–	–	–	–
CC(=O)NC(CCCCn1cc(C[C@@H](NC(=O)CCCCn2cc(C[C@@H](NC(=O)[C@@H](Cc3ccccc3)NC(=O)[C@@H](Cc3ccc(O)cc3)NC(=O)CNC(=O)[C@@H](CC(N)=O)NC(=O)[C@H](N)Cc3c[nH]cn3)C(=O)O)nn2)C(=O)N[C@H](Cc2c[nH]c3ccccc23)C(=O)N[C@H](CCCCN)C(=O)N[C@@H](C(=O)N[C@H](CCCCN)C(=O)N[C@H](CCCCNC(=O)CCc2cn(CCCC[C@H](NC(C)=O)C(=O)N[C@H](Cc3c[nH]cn3)C(=O)N[C@H](CC(=O)O)C(=O)NCC(=O)NCC(=O)N[C@H](Cc3ccccc3)C(N)=O)nn2)C(=O)N2CCCCC2)C(C)C)nn1)C(=O)NCCOCCOCCOCCC(=O)NCCNC(=O)CCCC[C@@H]1SC[C@@H]2NC(=O)N[C@@H]21 (stereo partly shown) [C-tL]	–	lower signal than N-tL	best binder; also recorded: shows good binding	significant selectivity for the Akt2 epitope	0.125	4 µM and ~4 µM	inhibits Akt2 kinase activity
